For 20 molecules, Ki results are on record in patent US7652020B2, “Compounds for the treatment of inflammatory disorders” (Schering Corporation, priority 2004, dated 2010).

For this assay, the target named is T1, purified catalytic domain of recombinant human TACE (rhTACEc) (Homo sapiens, UniProt P78536, N452Q/S266A).
T1 construct: Residue 215 to 477 with two mutation (S266A and N452Q) and a 6×His tail; 6xHis (C); made in house; host or cells: baculovirus/Hi5 insect cells
In words: TACE kinetic assay: cleavage of internally quenched peptide substrate SPDL-3, fluorescence. Type of assay: biochemical. To be noted: TACE, representative compounds, numeric values; read-out: Ki.

T1 sequence (P78536 215-477 S266A/N452Q): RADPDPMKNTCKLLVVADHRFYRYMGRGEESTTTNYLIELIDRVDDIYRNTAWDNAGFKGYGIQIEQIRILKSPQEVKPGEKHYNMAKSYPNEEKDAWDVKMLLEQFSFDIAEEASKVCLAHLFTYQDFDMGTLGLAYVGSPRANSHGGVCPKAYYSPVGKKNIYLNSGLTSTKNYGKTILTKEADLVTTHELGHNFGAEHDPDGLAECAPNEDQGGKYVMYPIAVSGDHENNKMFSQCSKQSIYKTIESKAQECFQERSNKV

With `CC(C)Nc1nc([C@H]2c3ccccc3CN2C(=O)[C@H](O)[C@@H](O)C(=O)N[C@H](C)c2ccc(-n3cccn3)cc2)cs1` [drawing 1298], the Ki amounted to 0.54 nM.

Consider `CNc1nc([C@H]2C=CCN2C(=O)[C@H](O)[C@@H](O)C(=O)N[C@H](C)c2ccc(-n3cccn3)cc2)cs1` [drawing 1300], for which the Ki was found to be 0.57 nM.

Regarding `C[C@@H](NC(=O)[C@](C)(O)[C@@H](O)C(=O)N1CCCC1(C)c1cccc(Cl)c1)c1ccc(-n2cccn2)cc1` (some centres unmarked) [drawing 1303], the Ki amounted to 0.75 nM.

Consider `C[C@@H](NC(=O)[C@H](O)[C@@H](O)C(=O)N1CCC[C@@H]1c1cccc(Cl)c1)c1ccc(-n2cccn2)cc1` [drawing 1304], for which the Ki was determined as 0.8 nM.

Consider `CC#CCOc1cc([C@@H](C)NC(=O)[C@H](O)[C@@H](O)C(=O)N2CCC[C@@H]2c2cccc(Cl)c2)ccc1-n1cccn1` [drawing 1305], for which the Ki came out at 0.85 nM.

With `COc1cc2c(cc1OC)C(c1ccccc1)N(C(=O)[C@H](O)[C@@H](O)C(=O)N[C@H](C)c1ccc(-n3cccn3)cc1)CC2` (some centres unmarked) [drawing 1306], the Ki came out at 0.86 nM.

In the case of `CCNc1nc([C@@H]2c3ccccc3CN2C(=O)[C@H](O)[C@@H](O)C(=O)N[C@H](C)c2ccc(-n3cccn3)cc2)cs1` [drawing 1307], the Ki worked out at 0.89 nM.

For the molecule `C[C@@H](NC(=O)[C@H](O)[C@@H](O)C(=O)N1CCc2ccccc2[C@@H]1c1csc(N)n1)c1ccc(-n2cccn2)cc1` [drawing 1309], the Ki was determined as 1.1 nM.

As to `CNc1nc([C@H]2c3ccccc3CCN2C(=O)[C@H](O)[C@@H](O)C(=O)N[C@H](C)c2ccc(-n3cccn3)cc2)cs1` [drawing 1310], the Ki is 1.4 nM.

In the case of `CNc1nc([C@H]2C[C@H]3C[C@H]3N2C(=O)[C@H](O)[C@@H](O)C(=O)N[C@H](C)c2ccc(-n3cccn3)cc2)cs1` [drawing 1312], the Ki was 1.4 nM.

As to `CC#CCOc1cc([C@@H](C)NC(=O)[C@](C)(O)[C@@H](O)C(=O)N2Cc3cccnc3C2)ccc1-n1cccn1` [drawing 1313], the Ki was determined as 1.44 nM.

On to `CC#CCOc1cc([C@@H](C)NC(=O)[C@H](O)[C@@H](O)C(=O)N2CC=CC2c2cccc(Cl)c2)ccc1-n1cccn1` (some centres unmarked) [drawing 1314], for which the inhibitory constant (Ki) came to 1.54 nM.

As for `CNc1nc([C@H]2CCCN2C(=O)[C@H](O)[C@@H](O)C(=O)N[C@H](C)c2ccc(-n3cccn3)cc2)c(C)s1` [drawing 1315], the Ki came out at 2 nM.

With `CNc1nc([C@H]2CCCN2C(=O)[C@H](O)[C@@H](O)C(=O)N[C@H](C)c2ccc(-n3cccn3)cc2)c(C#N)s1` [drawing 1316], the Ki is 2 nM.

In the case of `C[C@@H](NC(=O)[C@H](O)[C@@H](O)C(=O)N1CCC[C@@H]1c1ccn(-c2ccc(F)cc2)n1)c1ccc(-n2cccn2)cc1` [drawing 1317], the Ki turned out to be 2 nM.

As to `C[C@@H](NC(=O)[C@H](O)[C@@H](O)C(=O)N1CCC[C@@H]1c1ccn(-c2ccccc2)n1)c1ccc(-n2cccn2)cc1` [drawing 1318], the Ki is 2.3 nM.

Turning to `C[C@@H](NC(=O)[C@H](O)[C@@H](O)C(=O)N1CCC[C@@H]1c1ccn(-c2ccc(F)cc2)n1)c1ccc(-n2cccn2)cc1` [drawing 1320], the Ki was 2.7 nM.

As to `C[C@@H](NC(=O)[C@H](O)[C@@H](O)C(=O)N1CCc2ccc(F)cc2C1)c1ccc(-n2cccn2)cc1` [drawing 1323], the Ki turned out to be 3 nM.

Turning to `CC(C)Nc1nc([C@@H]2c3ccc(Cl)cc3CCN2C(=O)[C@H](O)[C@@H](O)C(=O)N[C@H](C)c2ccc(-n3cccn3)cc2)cs1` [drawing 1324], the Ki came to 3.3 nM.

With `CNc1nc([C@H]2CC(F)(F)CN2C(=O)[C@H](O)[C@@H](O)C(=O)N[C@H](C)c2ccc(-n3cccn3)cc2)cs1` [drawing 1327], the Ki stood at 3.9 nM.
